Reference: PubChem BioAssay (NCI)
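Compound exposure: 48 hours, 5 concentrations, 96-well plates. The concentration for 50% growth inhibition is given as GI50. At the TGI there is no net growth.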

Experiments:
Experiment in all cases: growth of human tumour cells (NCI), 48 h
[1] = test system: SN12C renal
[2] = test system: OVCAR-8 ovarian
[3] = test system: EKVX NSCLC
[4] = test system: TK-10 renal
[5] = test system: SF-268 CNS
[6] = test system: SNB-19 CNS
[7] = test system: CCRF-CEM leukemia
[8] = test system: SK-MEL-28 melanoma
[9] = test system: OVCAR-5 ovarian
[10] = test system: MALME-3M melanoma

Row | Compound | TGI [1] [µM] | TGI [2] [µM] | TGI [3] [µM] | TGI [4] [µM] | TGI [5] [µM] | TGI [6] [µM] | TGI [7] [µM] | TGI [8] [µM] | TGI [9] [µM] | TGI [10] [µM] | GI50 [1] [µM] | GI50 [2] [µM] | GI50 [3] [µM] | GI50 [4] [µM] | GI50 [5] [µM] | GI50 [6] [µM] | GI50 [7] [µM] | GI50 [8] [µM] | GI50 [9] [µM] | GI50 [10] [µM]
1 | CCN1CCC(O)(c2ccccc2)C(C(=O)c2ccccc2)C1 (stereo not given) | > 31.6 | 63.7 | > 76.4 | 47.3 | > 31.6 | > 100 | 38.3 | 33.4 | 37.5 | 38.4 |  |  |  |  |  |  |  |  |  | 
2 | C=C(CNCCc1ccc(O)cc1)[C@@H]1CC[C@]2(CO)CC[C@]3(C)[C@H](CC[C@@H]4[C@@]5(C)CCC(NCCO)C(C)(C)[C@@H]5CC[C@]43C)[C@@H]12 (stereo not given in full) | 3.25 | 3.22 | 3.41 | 3.14 | 3.23 | 3.03 | 1.92 | 3.38 | 3.31 | 3.08 | 1.75 | 1.79 | 1.6 | 1.7 | 1.57 | 1.63 | 0.433 | 1.81 | 1.67 | 1.54
3 | Nc1cc2c3c(cccc3c1)C(=O)N(CCN1CCN(CCN3C(=O)c4cccc5cc(N)cc(c45)C3=O)CC1)C2=O | > 100 | > 100 | > 100 | > 100 | > 100 | > 100 | > 100 | > 100 | > 100 | > 100 |  |  |  |  |  |  |  |  |  | 
4 | CC1(C)OCC(C2OC(On3nnc4ccc(Cl)cc43)C3OC(C)(C)OC23)O1 (stereo not given) | > 100 | > 100 | > 100 | > 100 | > 100 | > 100 | > 100 | > 100 | > 100 | > 100 |  |  |  |  |  |  |  |  |  | 
5 | COC(=O)C1(C)CCc2c(ccc3ccccc23)C1=O (stereo not given) | > 100 | > 100 | > 100 | 95.7 | > 100 | > 100 | > 100 | > 100 | > 100 | 69 |  |  |  |  |  |  |  |  |  | 
6 | COc1ccc2c(c1)C(=O)/C(=C/c1ccc(OCC(=O)c3ccc(Cl)cc3)cc1)O2 | 63.9 | > 100 | > 100 | 43.4 | 48.6 | > 100 | 4.75 | 30.1 | 23.9 | 42.3 | 17.3 | 42.4 | 25.6 | 26.5 | 18.4 | 48.2 | 1.92 | 15.5 | 11.5 | 20
7 | O=C1c2cccnc2-c2nc(-c3ccccc3)cc3c2c1nc1ccccc13 | 21.1 | > 63.1 | 18.1 | > 85.2 | 18.8 | 20.1 | 29.7 | 29.8 | 30.8 | 16.1 | 7.14 | 3.06 | 5.1 | 24.3 | 3.93 | 3.71 | 2.98 | 14.8 | 16.2 | 3.38
8 | CCOC(=O)/C(=C/c1c(-c2ccccc2)[nH]c2ccccc12)C(=O)c1ccc(Cl)cc1 | > 100 | > 100 | > 100 | > 100 | > 100 | > 100 | > 100 | > 100 | > 100 | > 100 | 3.35 | 5.75 | 3.73 | 28.2 | 6.06 | 7.96 | 2.73 | 5.26 | > 100 | 3.09
9 | COc1cc(C2c3cc4c(cc3[C@@H](OCCN)[C@H]3COC(=O)C23)OCO4)cc(OC)c1O (stereo not given in full) | 0.562 | 2.61 | 2.22 | > 19.8 | 1.48 | 1.93 | 0.0409 | 2.37 | 3.6 | 1.59 |  |  |  |  |  |  |  |  |  | 
10 | C=C1C(=O)C23C(O)C1CCC2C12CO[C@]3(O)[C@@H](O)C1C(C)(C)CCC2O (stereo not given in full) | 27.9 | 20.5 | 28.9 | 34.3 | 28.8 | 28.6 | 5.98 | 11.4 | 34.5 | 17.5 |  |  |  |  |  |  |  |  |  | 
11 | C/C(=N\NC(=S)Nc1ccccc1)c1ccccn1 | 9.64 | 2.54 | 7.38 | 3.77 | 5.17 | 16.4 | > 100 | 4.94 | 10.9 | 5.39 | 0.355 | < 0.0169 | 0.0691 | 1.02 | 0.205 | 1.1 | < 0.01 | 1.68 | 0.118 | 0.121
12 | CCN(CC)c1ccc(/C=C/C2=[N+](C)c3ccccc3C2(C)C)cc1 | 13.8 | > 100 | 14 | 10.6 | 33.2 | 15.4 | > 100 | 9.48 | 23.7 | 3.29 | 0.342 | 0.442 | 0.235 | 0.373 | 0.627 | 0.326 | 0.183 | 0.61 | 1.01 | 0.29
13 | NCCCNCCCNc1nc2ccccc2c2[nH]c3ccccc3c12 | 1.28 | 4.3 | 5.8 | 3.68 | 1.72 | 1.42 | 2.42 | 2.1 | 1.61 | 2.74 | 0.0224 | 0.0346 | 2.09 | 1.1 | 0.0264 | 0.0785 | 0.126 | 0.464 | 0.215 | 1
14 | COC(=O)Oc1nn(C(=O)OC)c(=O)c2ccccc12 (tested in a mixture with another compound) | > 100 | > 100 | > 100 | > 100 | > 100 | > 100 | > 100 | > 100 | > 100 | > 100 |  |  |  |  |  |  |  |  |  | 
15 | c1ccc(COc2ccc(Nc3ncnc4ccc(-c5ccco5)cc34)cc2)cc1 | > 25 | > 25 | > 25 | 16.3 | > 25 | > 25 | > 25 | > 25 | 14.8 | > 21.1 | 8.49 | 11.3 | 1.81 | 3.26 | 8.29 | 12.7 | 7.76 | 9.51 | 4.57 | 6.04
